Usually melting point stands for the temperature of the solid-liquid transition.

The source of these data is patent US20020032325A1, “4-amino-3-mercapto-1,2,4-triazoles” (priority 1999, published 2002).

Series [1] concerns the target T1, nitric oxide synthase (Mus musculus, UniProt P29477).
T1 sequence (P29477 1-1144): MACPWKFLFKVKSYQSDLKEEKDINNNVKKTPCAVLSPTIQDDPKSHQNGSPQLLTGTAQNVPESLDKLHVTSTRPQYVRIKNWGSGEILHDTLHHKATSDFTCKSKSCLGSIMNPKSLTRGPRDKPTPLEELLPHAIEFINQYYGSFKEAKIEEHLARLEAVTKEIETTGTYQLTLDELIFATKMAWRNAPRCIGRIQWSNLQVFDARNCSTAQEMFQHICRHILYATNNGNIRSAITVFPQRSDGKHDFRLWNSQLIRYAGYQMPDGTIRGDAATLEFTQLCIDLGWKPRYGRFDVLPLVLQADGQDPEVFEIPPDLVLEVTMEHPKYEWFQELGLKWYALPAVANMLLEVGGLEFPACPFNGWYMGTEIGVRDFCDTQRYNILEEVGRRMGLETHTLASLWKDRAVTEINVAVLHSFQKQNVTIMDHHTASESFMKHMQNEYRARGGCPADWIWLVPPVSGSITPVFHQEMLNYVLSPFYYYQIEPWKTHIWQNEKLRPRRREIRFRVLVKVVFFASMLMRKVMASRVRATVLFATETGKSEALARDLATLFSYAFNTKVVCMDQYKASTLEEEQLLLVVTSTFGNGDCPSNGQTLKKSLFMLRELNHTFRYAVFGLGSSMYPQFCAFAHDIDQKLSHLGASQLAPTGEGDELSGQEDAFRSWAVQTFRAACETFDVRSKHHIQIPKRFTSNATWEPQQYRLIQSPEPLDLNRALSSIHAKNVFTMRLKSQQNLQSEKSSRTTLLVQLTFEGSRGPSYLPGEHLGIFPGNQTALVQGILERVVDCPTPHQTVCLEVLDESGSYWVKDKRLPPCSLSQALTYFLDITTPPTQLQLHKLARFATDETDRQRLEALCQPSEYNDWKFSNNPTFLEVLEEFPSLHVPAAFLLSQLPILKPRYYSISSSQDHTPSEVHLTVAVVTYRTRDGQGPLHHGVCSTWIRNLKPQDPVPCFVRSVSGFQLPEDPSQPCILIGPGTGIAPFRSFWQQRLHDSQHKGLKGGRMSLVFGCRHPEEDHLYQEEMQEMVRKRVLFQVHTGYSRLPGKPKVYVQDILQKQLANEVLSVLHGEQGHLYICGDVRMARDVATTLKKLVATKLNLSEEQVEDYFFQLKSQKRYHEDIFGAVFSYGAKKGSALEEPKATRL
Kind of series: NOS inhibition assay: nitric oxide (nitrite, Greiss reagent) production from PAM 212 keratinocytes stimulated with gamma interferon. Particulars: 100 U/ml gamma interferon, 72 hours, nitrite in medium. Type of series: cell-based.

Series [2] concerns PAM 212 cells. Kind of series: Antiproliferative assay, PAM 212 tumor cells counted with Coulter counter. The series is classed as cell-based. Particulars: Mus musculus, PAM212, grown 4 to 5 days, read-out: IC50, concentration inhibiting cell growth by 50%. The source says:
The ability of any one of the compounds according to the present invention to inhibit cell growth is recognized by the scientific community to be directly related to its therapeutic potential as an anticancer agent. This type of growth assay can be used with mammalian cancer cells as well as with pathogenic and non-pathogenic microbes, including, but not limited to, yeasts and bacteria. To assay these compounds for anticancer activity, tumor cells (PAM 212) grown in vitro in monolayer culture flasks were used. […] Triplicate wells on the plates were used to measure control growth and growth of the cells in the presence of each concentration of anticancer agent. The cells were then returned to the incubator. […] The cells from each well on the culture dishes were removed by trypsin treatment and counted with a Coulter counter. After a period of time, the number of cells in each well was determined. The data can be presented as a curve showing the inhibition of tumor cell growth with increasing concentrations of the test compound. […] Each of the compounds according to the present invention was a potent inhibitor of cell growth with the IC50 values being typically in the micromolar concentration range.

In turn, `Fc1ccc(-c2nnc3n2N=C(C(F)(F)F)CS3)cc1` came in with an IC50 in series [1] of 30 µM.
As for `CC(CCCl)Sc1nnc(-c2cccs2)n1N` (stereo not drawn), the melting point fell in the range of 196 to 197 °C.
Take `O=[N+]([O-])c1ccccc1C=CC=Nn1c(S)nnc1-c1cccs1` [Compound VIIc]: the melting point was 214 to 215 °C. The IC50 in series [1] came to 12 µM. Besides, in series [2], the IC50 is 60 µM.
`CSc1nnc(C2CCCCC2)n1N=CC(Br)=Cc1ccccc1` [Compound Xi] gave an IC50 in series [1] of 146 µM.
The compound `Nn1c(-c2cccs2)n[nH]c1=S` [III (R = 2-thienyl), 4-amino-3-mercapto-5-(2-thienyl)-(4H)-1,2,4-triazole] yielded an IC50 in series [1] of 77 µM.
Compound `Nn1c(S)nnc1-c1ccc(F)cc1` [III (R = 4-F—C6H4—)] came in with an IC50 in series [1] of 98 µM.
Still for that read-out and setting: the figure for `Brc1ccccc1-c1nnc2n1N=CC=C(c1ccccc1)S2` [IV (R = 2-Br—C6H4—, R′ = H)] is 87 µM; for `C1=Nn2c(Cc3ccccc3)nnc2SC(c2ccccc2)=C1` [IV (R = benzyl, R′ = H)] it is 52 µM.
As to `Fc1ccc(-c2nnc3n2N=CC=C(c2ccccc2)S3)cc1` [IVb], the melting point is 217 to 219 °C. Further, the IC50 in series [1] stood at 21 µM.
The compound `C1=Nn2c(nnc2-c2cccs2)SC(c2ccccc2)=C1` [IVc] gave a melting point of 164 to 166 °C. In series [1], this compound yielded an IC50 of 48 µM.
`CN1C(C=Cc2ccccc2)Sc2nnc(-c3cccs3)n21` (stereo not drawn) [IXa] displayed a melting point of 250 to 252 °C. This compound also gave an IC50 in series [1] of 15 µM. The IC50 in series [2] came to 44 µM.
The like results for `CN1C(C=Cc2ccccc2)Sc2nnc(-c3ccco3)n21` (stereo not drawn) [IXd] were, in that order, 128 to 129.5 °C, 14 µM and 45 µM.
With `Cc1nnc2n1N(C)C(C=Cc1ccccc1)S2` (stereo not drawn) [IXf], the melting point is 125 to 126 °C. In series [1], this compound showed an IC50 of 17 µM. Also, the IC50 in series [2] is > 100 µM.
In series [1], `COC(=O)CCSc1nnc(C)n1N` [VI (R = methyl, R′ = —CH2—CH2—COOMe)] returned an IC50 of 170 µM.
Still for that read-out and setting: as for `Fc1ccc(-c2nnc3n2N=C(c2ccccc2)CS3)cc1` [VIII (R = 4-F—C6H4—, R′ = phenyl)], the figure is > 100 µM.
The compound `Cc1nnc2n1N=C(C(F)(F)F)CS2` [VIIIc] gave a melting point of 85 to 86 °C. Also, the IC50 in series [1] is > 100 µM.
The like results for `Sc1nnc(-c2cccs2)n1N=CC=Cc1ccccc1` [VIIa, 4-imino-(cinnamyl)-3-mercapto-5-(2-thienyl)-4H-1,2,4-triazole] were, in that order, 206 to 206.5 °C and 35 µM.
In turn, `COc1ccccc1C=CC=Nn1c(S)nnc1-c1cccs1` [VIIb] came in with a melting point of 227 to 228 °C. In addition, the IC50 in series [1] is > 100 µM.
In turn, `Oc1cccc(C=Nn2c(S)nnc2-c2cccnc2)c1O` [VIIr] showed an IC50 in series [1] of 29 µM.
The compound `CC(CC(=O)Oc1ccccc1)Sc1nnc(-c2cccs2)n1N` (stereo not drawn) [VIb] returned a melting point of 109.5 to 111 °C. Further, the IC50 in series [1] is > 100 µM.
The corresponding values for `C1=C(c2ccccc2)Sc2nnc(-c3ccccc3)n2NC1` [Va] are 222 to 223 °C and 110 µM.
